The subject of assay [1] is db mice (C57BL/KsOlahsd-Leprdb, diabetic). As to the kind of experiment: Acute response of db mice to RUP3 agonist (blood glucose). Format: in vivo. To be noted: male db mice; 1 μg/kg, intraperitoneally; FIG. 5B. The procedure: B. […] Male db mice (C57BL/KsOlahsd-Leprdb, diabetic, Harlan) at age of 10 weeks were randomly grouped (n=6) to receive vehicle (oral gavage), Compound B70 (60 mg/kg, oral gavage), or Ex-4 (1 μg/kg, intraperitoneally). After compound administration, food was removed and blood glucose levels were determined at indicated times as shown in FIG. 5B. Reduction in blood glucose at each time point was expressed as percentage of original glucose levels, averaged from six animals for each group.

Another assay deals with T1, RUP3 (Homo sapiens, UniProt Q8TDV5).
T1 construct: seen in the listing only (N); seen in the listing only (C); expressed in transfected cells
T1 sequence (Q8TDV5 with tags, fused parts or gaps): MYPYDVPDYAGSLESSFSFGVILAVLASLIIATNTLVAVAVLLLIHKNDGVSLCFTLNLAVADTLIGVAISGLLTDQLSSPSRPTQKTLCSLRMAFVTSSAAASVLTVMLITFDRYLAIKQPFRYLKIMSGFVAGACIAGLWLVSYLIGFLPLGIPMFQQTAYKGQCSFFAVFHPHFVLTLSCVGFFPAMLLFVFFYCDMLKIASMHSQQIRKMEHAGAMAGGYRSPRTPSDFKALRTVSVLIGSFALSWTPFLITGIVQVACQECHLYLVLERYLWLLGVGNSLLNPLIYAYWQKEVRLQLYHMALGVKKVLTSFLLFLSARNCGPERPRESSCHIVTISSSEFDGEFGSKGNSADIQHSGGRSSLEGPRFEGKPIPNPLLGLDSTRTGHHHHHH
Kind of assay: 96-Well Cyclic AMP Membrane Assay for RUP3 (Membrane Cyclase Assay). Format: biochemical. The following applies: RUP3 membranes, cAMP Flashplate. How it is done:
96-Well Cyclic AMP Membrane Assay for RUP3
Binding Buffer—filter through […] Nalgene filter and keep in refrigerator. All buffers and membranes should be kept cold (in ice bucket) while performing assay. • 20 mM Hepes, pH7.4 • 1 mM MgCl2 • 100 mM NaCl • 2× Regeneration Buffer (make in binding buffer): • 20 mM Phosphocreatine (1.02 gm/200 ml binding buffer) • 20 units Creatine phosphokinase (4 mg/200 ml) • 20 uM GTP (make up 10.46 mg/ml in binding buffer and add 200 ul/200 ml) • 0.2 mM ATP (22.04 mg/200 ml) • […] IBMX (44.4 mg IBMX dissolved in 1 ml 100% DMSO first and then add the entire amount to 200 ml of buffer).
Regeneration buffer can be aliquotted into 40-45 ml portions (in 50 ml sterile tubes) and kept frozen for up to 2 months. Simply put the tube in a beaker with room temperature water to thaw out the regeneration buffer on the day of the assay. […]
IC50s or EC50s are done in triplicate. […] The membranes are kept in ice all the time, and a polytron (Brinkmann polytron, model #PT-3100) is used (setting 6-7, for 15-20 seconds) to obtain a homogeneous membrane suspension.) Protein concentration is determined by Bradford protein assay kit using instructions given in the kit, using the standard supplied with the kit as a reference. […]

The subject of assay [2] is HIT-T15 cells. Kind of assay: Stimulation of insulin secretion in HIT-T15 cells. Format: cell-based, hamster. To be noted: HIT-T15 cells exposed to 15 mM glucose; compared with forskolin; FIG. 4C. The procedure: D. Stimulation of Insulin Secretion in HIT-T15 Cells
It is known that stimulation of cAMP in HIT-T15 cells causes an increase in insulin secretion when the glucose concentration in the culture media is changed from 3 mM to 15 mM. Thus, RUP3 ligands can also be tested for their ability to stimulate glucose-dependent insulin secretion (GSIS) in HIT-T15 cells. In this assay, 30,000 cells/well in a 12-well plate are incubated in culture media containing 3 mM glucose and no serum for 2 hours. The media is then changed; wells receive media containing either 3 mM or 15 mM glucose, and in both cases the media contains either vehicle (DMSO) or RUP3 ligand at a concentration of interest. Some wells receive media containing 1 uM forskolin as a positive control. All conditions are tested in triplicate. Cells are incubated for 30 minutes, and the amount of insulin secreted into the media is determined by ELISA, using a kit from either Peninsula Laboratories (Cat #ELIS-7536) or Crystal Chem Inc. (Cat #90060).
In the first of these, RUP3 agonists are used to stimulate HIT-T15 cells, which express RUP3 at significant levels, as indicated in the Northern blot shown in FIG. 4A.

Assay [3] relates to HIT-T15 cells. Kind of assay: Stimulation of cAMP in HIT-T15 cells. Format: cell-based, hamster. To be noted: compared with adenyl cyclase activator forskolin, FIG. 4B. The procedure: C. Stimulation of cAMP in HIT-T15 Cells
HIT-T15 (ATCC CRL#1777) is an immortalized hamster insulin-producing cell line. These cells express RUP3 and therefore can be used to assess the ability of RUP3 ligands to stimulate or inhibit cAMP accumulation via its endogenously expressed receptor. In this assay, cells are grown to 80% confluence and then distributed into a 96-well Flashplate (50,000 cells/well) for detection of cAMP via a “cAMP Flashplate Assay” (NEN, Cat #SMP004). Briefly, cells are placed into anti-cAMP antibody-coated wells that contain either vehicle, the test ligand(s) at a concentration of interest, or 1 uM forskolin. The latter is a direct activator of adenylyl cyclase and serves as a positive control for stimulation of cAMP in HIT-T15 cells. All conditions are tested in triplicate. After ail hour incubation to allow for stimulation of cAMP, a Detection Mix containing ^125I-cAMP is added to each well and the plate is allowed to incubate for another 1 hour. The wells are then aspirated to remove unbound ^125I-cAMP. Bound ^125I-cAMP is detected using a Wallac Microbeta Counter. The amount of cAMP in each sample is determined by comparison to a standard curve, obtained by placing known concentrations of cAMP in some wells on the plate. […]

The next assay concerns isolated rat islets. Kind of assay: Stimulation of insulin secretion in isolated rat islets. The following applies: 10 μM concentration, enhancement comparable to 25 nM GLP-1, FIG. 4D. In kind it is cell-based. How it is done: E. Stimulation of Insulin Secretion in Isolated Rat Islets
As with HIT-T15 cells, it is known that stimulation of cAMP in isolated rat islets causes an increase in insulin secretion when the glucose concentration in the culture media is changed from 60 mg/dl to 300 mg/dl. RUP3 is an endogenously expressed GPCR in the insulin-producing cells of rat islets. Thus, RUP3 ligands can also be tested for their ability to stimulate GSIS in rat islet cultures. This assay is performed as follows: • A. Select 75-150 islet equivalents (IEQ) for each assay condition using a dissecting microscope. Incubate overnight in low-glucose culture medium. (Optional.) • B. Divide the islets evenly into triplicate samples of 25-40 islet equivalents per sample. Transfer to 40 μm mesh sterile cell strainers in wells of a 6-well plate with 5 ml of low (60 mg/dl) glucose Krebs-Ringers Buffer (KRB) assay medium. • C. Incubate 30 minutes (1 hour if overnight step skipped) at 37° C. and 5% CO2. Save the supernatants if a positive control for the RIA is desired. • D. Move strainers with islets to new wells with 5 ml/well low glucose KRB. […] Freeze and store at <−20° C. until insulin concentrations can be determined. • I. Insulin determinations are done as above, or by Linco Labs as a custom service, using their rat insulin RIA (Cat. #RI-13K). […]

Entries after “also recorded” stand apart in the source; their conditions may differ.

With extendin-4 [Ex-4, reference compound], the “blood glucose levels compared to vehicle control” value in assay [1] is “significantly reduces glucose levels compared to vehicle control”.
In turn, `CCCC1CCN(c2ncnc(Oc3ccc(C(=O)c4ccc(F)cc4)cc3)c2[N+](=O)[O-])CC1` [Compound A124, (4-Fluoro-phenyl)-{4-[5-nitro-6-(4-propyl-piperidin-1-yl)-pyrimidin-4-yloxy]-phenyl}-methanone] returned an IC50 on RUP3 of 241 nM.
For `CS(=O)(=O)c1ccc(Nc2ncnc(N3CCC(Sc4ccccc4)CC3)c2[N+](=O)[O-])cc1` [Compound B84, (4-Methanesulfonyl-phenyl)-[5-nitro-6-(4-phenylsulfanyl-piperidin-1-yl)-pyrimidin-4-yl]-amine], the “insulin secretion in HIT cells” value with HIT-T15 cells [2] was “stimulates insulin secretion in HIT cells exposed to 15 mM glucose, once again at a level comparable to that seen with the adenyl cyclas activator forskolin; also recorded: stimulates insulin secretion in HIT cells exposed to 15 mM glucose, at a level comparable to that seen with the adenylcyclase activator forskolin”. In addition, the midpoint of inhibition against RUP3, the IC50, lay at 50 nM. The “cAMP production in HIT cells” value in the assay with HIT-T15 cells [3] is recorded as “stimulates cAMP production in HIT cells, at a level comparable to that seen with the adenyl cyclase activator forskolin”.
On to `CCOC(=O)C1CCN(c2ncnc(Oc3ccc(C4NC(=O)NC4=O)cc3)c2[N+](=O)[O-])CC1` (stereo not shown) [Compound A48, 1-{6-[4-(2,5-Dioxo-imidazolidin-4-yl)-phenoxy]-5-nitro-pyrimidin-4-yl}-piperidine-4-carboxylic acid ethyl ester], for which the glucose-dependent insulin release entry in the assay with isolated rat islets was “enhanced glucose-dependent insulin release compared to control”.
Turning to `CCOC(=O)C1CCN(c2ncnc(Oc3ccc(CCC(C)=O)cc3)c2[N+](=O)[O-])CC1` [Compound A51, 1-{5-Nitro-6-[4-(3-oxo-butyl)-phenoxy]-pyrimidin-4-yl}-piperidine-4-carboxylic acid ethyl ester], in the assay with isolated rat islets, the glucose-dependent insulin release result is “enhanced glucose-dependent insulin release compared to control”.

Usually IC50 stands for the concentration at which inhibition is half-maximal. High values mean a need for much substance, low ones inhibition by little substance.

(Values after patent publication US8293751B2, “1,2,3-trisubstituted aryl and heteroaryl derivatives as modulators of metabolism and the prophylaxis and treatment of disorders related thereto such as diabetes and hyperglycemia” (Arena Pharmaceuticals, Inc., priority 2003, dated 2012).)
